Measurements published in patent US20130303575A1, “ADMINISTRATION OF AN INHIBITOR OF HDAC” (priority 2007, published 2013).
Entries after “also recorded” stand apart in the source; their conditions may differ. Marks after values point to notes of the source that are not given here.

Assay: Safety, DLT, MTD and adverse events in patients with advanced solid tumors or lymphoma (Example 2)
Assay type: in vivo
Text: DLT was defined as first course adverse events […] hematologic toxicity. The MTD was defined as one dose level below the dose at which […] of six patients experienced DLT.
Dose reduction by one level was applied for the occurrence of either grade 3 nonhematologic toxicity, grade 4 hematologic toxicity, persistent (≦2 weeks) grade 2 nonhematologic toxicity, or per the investigator's assessment. […] No limitation for the number of dose reductions was chosen.
At study entry, history, physical examination, laboratory studies (CBC, electrolytes, creatinine, blood urea nitrogen, total and direct bilirubin, ALT, AST, alkaline phosphatase, uric acid, prothrombin time, partial thromboplastin time, and urinalysis), computed tomography scan and chest x-ray and ECG were performed. Clinical assessments, including a physical examination and adverse event evaluation, were conducted at each follow-up. Adverse events were graded by the NCI Common Toxicity Criteria (version 2.0). Computed tomography scans and staging was performed every 6 weeks for the q14-day schedule. Disease-specific staging techniques, such as bone marrow aspirate and biopsy, flow cytometry, cutaneous lesion photography, or bone scan were used as indicated. Response evaluations used the Response Evaluation Criteria in Solid Tumors and the Cheson criteria for lymphoma. Multiple-gated acquisition (MUGA) scans were obtained on the q14-day schedule at base line, before course 2 and at each restaging. Laboratory studies (CBC with differential, chemistry 20, prothrombin time and […] thromboplastin time) were performed on days 1, 3, 5, 7 and repeated weakly.

## Nc1ccccc1NC(=O)c1ccc(CNC(=O)OCc2cccnc2)cc1 [SNDX-275, N-(2-aminophenyl) 4-[N-(pyrid-3-yl)methyloxycarbonylaminomethyl]benzamide]
Every 14 days, 2 mg/m^2
  DLTs: 0
  No. of Patients With First Course DLT: 0
Every 14 days, 4 mg/m^2
  DLTs: 0
  No. of Patients With First Course DLT: 0
Every 14 days, 6 mg/m^2
  No. of Patients With First Course DLT: 1
Every 14 days, 6 mg/m^2, anorexia, nausea, and vomiting
  DLTs: 3†
Every 14 days, 8 mg/m^2
  DLTs: 0
  No. of Patients With First Course DLT: 0
Every 14 days, 10 mg/m^2
  No. of Patients With First Course DLT: 1
Every 14 days, 10 mg/m^2, anorexia, nausea, and vomiting
  DLTs: 3†
Every 14 days, 12 mg/m^2
  No. of Patients With First Course DLT: 2
Every 14 days, 12 mg/m^2, anorexia, nausea, vomiting, and fatigue
  DLTs: 7‡
Every day x 28/42 days, 2 mg/m^2, 2 patients
  No. of Patients With First Course DLT: 2
Daily schedule (once-a-day×28 every 6 weeks), first dose level 2 mg/m^2
  MTD: exceeded at the first dose level
human, in vivo
  Abdominal pain: % (All Grades): 7%
  Anemia: No. of Patients (All Grades): 8
  Anorexia: % (All Grades): 36%
  Anorexia: Grade 3: 4
  Anorexia: No. of Patients (All Grades): 10
  Bilirutin: % (All Grades): 14%
  Bilirutin: No. of Patients (All Grades): 4
  Chest pain: % (All Grades): 7%
  Chest pain: No. of Patients (All Grades): 2
  Constipation: % (All Grades): 7%
  Constipation: No. of Patients (All Grades): 2
  Hypermagnesemia: No. of Patients (All Grades): 2
  Hypoalbuminemia: % (All Grades): 64%
  Hypoalbuminemia: No. of Patients (All Grades): 18
  Hypocalcemia: % (All Grades): 21%
  Hypocalcemia: No. of Patients (All Grades): 6
  Hypokalemia: % (All Grades): 4%
  Hypokalemia: No. of Patients (All Grades): 1
  Hyponatremia: % (All Grades): 25%
  Hyponatremia: No. of Patients (All Grades): 7
  Infection w/o neutropenia: % (All Grades): 7%
  Infection w/o neutropenia: Grade 3: 0
  Infection w/o neutropenia: No. of Patients (All Grades): 2
  Leucopenia: % (All Grades): 21%
  Leucopenia: No. of Patients (All Grades): 6
  Libido: % (All Grades): 4%
  Libido: Grade 3: 0
  Libido: No. of Patients (All Grades): 1
  Myalgia: Grade 3: 0
  Myalgia: No. of Patients (All Grades): 1
  Nail changes: % (All Grades): 4%
  Nail changes: Grade 3: 0
  Nail changes: No. of Patients (All Grades): 1
  Nausea: % (All Grades): 64%
  Nausea: Grade 3: 4
  Nausea: No. of Patients (All Grades): 18
  Neurosensory deficits: % (All Grades): 7%
  Neurosensory deficits: No. of Patients (All Grades): 2
  Sinus Tachycardia: No. of Patients (All Grades): 1
  Stomatitis: % (All Grades): 4%
  Stomatitis: No. of Patients (All Grades): 1
  Sweating: % (All Grades): 4%
  Sweating: Grade 3: 0
  Sweating: No. of Patients (All Grades): 1
  Taste disturbance: % (All Grades): 29%
  Taste disturbance: Grade 3: 0
  Taste disturbance: No. of Patients (All Grades): 8
human, in vivo, po
  tolerability: intolerable
q14-day schedule
  MTD (and recommended phase II dose): 10 mg/m^2
  SNDX-275-related first course grade 4 adverse events: no SNDX-275-related first course grade 4 adverse events
  dose-limiting toxicities: nausea, vomiting, anorexia and fatigue; also recorded: anorexia, nausea, vomiting and fatigue
  tolerability: reasonably well-tolerated
q14-day schedule, first course
  Abdominal pain: No. of Patients (All Grades): 2
  Alkaline phosphatase: % (All Grades): 4%
  Alkaline phosphatase: No. of Patients (All Grades): 1
  Allergic reaction: % (All Grades): 4%
  Allergic reaction: Grade 3: 0
  Allergic reaction: No. of Patients (All Grades): 1
  Anemia: % (All Grades): 29%
  Cough: % (All Grades): 4%
  Cough: No. of Patients (All Grades): 1
  Creatinine: % (All Grades): 7%
  Creatinine: No. of Patients (All Grades): 2
  Dehydration: % (All Grades): 11%
  Dehydration: Grade 3: 0
  Dehydration: No. of Patients (All Grades): 3
  Depression: % (All Grades): 4%
  Depression: Grade 3: 0
  Depression: No. of Patients (All Grades): 1
  Diarrhea: % (All Grades): 7%
  Diarrhea: No. of Patients (All Grades): 2
  Dyspepsia: % (All Grades): 21%
  Dyspepsia: No. of Patients (All Grades): 6
  Fatigue: % (All Grades): 54%
  Fatigue: Grade 3: 1
  Fatigue: No. of Patients (All Grades): 15
  Fever: % (All Grades): 4%
  Fever: Grade 3: 0
  Fever: No. of Patients (All Grades): 1
  Flatulence: % (All Grades): 11%
  Flatulence: No. of Patients (All Grades): 3
  GI other: % (All Grades): 7%
  GI other: No. of Patients (All Grades): 2
  Headache: % (All Grades): 50%
  Headache: Grade 3: 0
  Headache: No. of Patients (All Grades): 14
  Hyperglycemia: % (All Grades): 11%
  Hyperglycemia: No. of Patients (All Grades): 3
  Hypermagnesemia: % (All Grades): 7%
  Lymphopenia: % (All Grades): 18%
  Lymphopenia: No. of Patients (All Grades): 5
  Middle ear infection: % (All Grades): 4%
  Middle ear infection: Grade 3: 0
  Middle ear infection: No. of Patients (All Grades): 1
  Muscle weakness: % (All Grades): 4%
  Muscle weakness: Grade 3: 0
  Muscle weakness: No. of Patients (All Grades): 1
  Myalgia: % (All Grades): 4%
  Neutropenia: % (All Grades): 25%
  Neutropenia: No. of Patients (All Grades): 7
  Pain other: % (All Grades): 4%
  Pain other: No. of Patients (All Grades): 1
  Pleuretic pain: % (All Grades): 4%
  Pleuretic pain: No. of Patients (All Grades): 1
  Rhinitis: % (All Grades): 4%
  Rhinitis: No. of Patients (All Grades): 1
  Sinus Tachycardia: % (All Grades): 3%
  Thrombooytopenia: % (All Grades): 36%
  Thrombooytopenia: No. of Patients (All Grades): 10
  Tremors: % (All Grades): 4%
  Tremors: No. of Patients (All Grades): 1
  Urinary electrolyte wasting: % (All Grades): 11%
  Urinary electrolyte wasting: No. of Patients (All Grades): 3
  Vomiting: % (All Grades): 39%
  Vomiting: Grade 3: 4
  Vomiting: No. of Patients (All Grades): 11
